The test system of the experiment is H4. Nature of the experiment: Induction of autophagy in human H4 cells expressing LC3 using DAPI staining after 4 hrs by fluorescence microscopic analysis. The format is functional, cell-based. The following applies: H4, 4 h.
Turning to `OC1(c2ccc(C(F)(F)F)c(Cl)c2)CCN(C2c3ccccc3-c3ccccc32)CC1`, it took 2.6 µM to reach a half-maximal effect (EC50).
Take `Cc1ccc(C2(O)CCN(CCCC(c3ccc(F)cc3)c3ccc(F)cc3)CC2)cc1`: it took 6.4 µM to reach a half-maximal effect (EC50).
As to `O=C1NCN(c2ccccc2)C12CCN(C1c3ccccc3-c3ccccc31)CC2`, the midpoint of the response, the EC50, lay at 7.9 µM.
In the case of `O=C(CCC(c1ccc(F)cc1)c1ccc(F)cc1)N1CCC2(CC1)C(=O)NCN2c1ccccc1`, the EC50 is over 50 µM.
As to `OC1(c2ccc(Cl)c(C(F)(F)F)c2)CCN(CCCC(c2cccc(F)c2)c2cccc(F)c2)CC1`, a half-maximal effect (EC50) was put at 2.2 µM.
`CC(=O)OC1(c2ccc(C)cc2)CCN(CCCC(c2ccc(F)cc2)c2ccc(F)cc2)CC1` displayed a half-maximal effective concentration (EC50) of 4.4 µM.
Then `OC1(c2ccc(Cl)c(C(F)(F)F)c2)CCN(CCC=C(c2ccc(F)cc2)c2ccc(F)cc2)CC1`, with 4.3 µM.
Consider `COc1ccc(C(CCCN2CCC(O)(c3ccc(Cl)c(C(F)(F)F)c3)CC2)c2ccc(OC)cc2)cc1`, for which the response was half-maximal at 1.2 µM (EC50).
For `O=C1NCN(c2ccccc2)C12CCN(CCCN(c1ccccc1)c1ccccc1)CC2`, the concentration for a half-maximal effect (EC50) was 24.9 µM.
The value for `Cc1ccc(C(CCCN2CCC(O)(c3ccc(Cl)c(C(F)(F)F)c3)CC2)c2ccc(C)cc2)cc1` was 0.29 µM.
The value for `O=C(CCC(c1ccc(F)cc1)c1ccc(F)cc1)N1CCC(O)(c2ccc(Cl)c(C(F)(F)F)c2)CC1` was over 50 µM.
Then `Cc1ccc(C(CCCN2CCC3(CC2)C(=O)NCN3c2ccccc2)c2ccc(C)cc2)cc1`, with 3.1 µM; and `N#CC(CCCN1CCC2(CC1)C(=O)NCN2c1ccccc1)(c1ccccc1)c1ccccc1`, with 14.8 µM; and `OC1(c2ccc(C(F)(F)F)c(Cl)c2)CCN(C2c3ccccc3CCc3ccccc32)CC1`, with 2.6 µM.
`OC1(c2ccc(Cl)c(C(F)(F)F)c2)CCN(CCCC(c2ccccc2)c2ccccc2)CC1`: the EC50 turned out to be 5.1 µM.
Take `O=C1NCN(c2ccccc2)C12CCN(CCCC(c1ccc(C(F)(F)F)cc1)c1ccc(C(F)(F)F)cc1)CC2`: a half-maximal effect (EC50) was put at 3.7 µM.
For the compound `O=C1NCN(c2ccccc2)C12CCN(CCC(c1ccc(F)cc1)c1ccc(F)cc1)CC2`, it took 2.1 µM to reach a half-maximal effect (EC50).
In the case of `Fc1ccc(C(CCCN2CCN(c3ccc(Cl)cc3)CC2)c2ccc(F)cc2)cc1`, the half-maximal effective concentration (EC50) was over 50 µM.
Consider `OC1(c2ccc(C(F)(F)F)c(Cl)c2)CCN(C2c3ccccc3Sc3ccccc32)CC1`, for which a half-maximal effect (EC50) was put at 14.4 µM.
As for `O=C1NCN(c2ccccc2)C12CCN(CC/C=C\c1ccc(F)cc1)CC2`, the EC50 was over 50 µM.
Compound `O=C1NCN(c2ccccc2)C12CCN(CCCC(c1ccc(F)cc1)c1ccc(F)cc1)CC2` [FLUSPIRILENE] returned a concentration for a half-maximal effect (EC50) of 2.4 µM.
Turning to `OCCN1CCN(CCCC(c2ccc(F)cc2)c2ccc(F)cc2)CC1`, the EC50 is over 50 µM.
For `OC1(c2ccc(Cl)c(C(F)(F)F)c2)CCN(CCCC(c2ccc(OC(F)(F)F)cc2)c2ccc(OC(F)(F)F)cc2)CC1`, the concentration for a half-maximal effect (EC50) was 0.97 µM.
`OC1(c2ccc(Cl)c(C(F)(F)F)c2)CCN(CCCC(c2ccc(Cl)cc2)c2ccc(Cl)cc2)CC1` yielded a half-maximal effective concentration (EC50) of 2.4 µM.
Take `Cc1ccc(C2=CCN(CCCC(c3ccc(F)cc3)c3ccc(F)cc3)CC2)cc1`: the EC50 was over 50 µM.
`OC1(c2ccc(Cl)c(C(F)(F)F)c2)CCN(CCCCC(c2ccc(F)cc2)c2ccc(F)cc2)CC1` displayed a concentration for a half-maximal effect (EC50) of 2.7 µM.
The value for `O=C1NCN(c2ccccc2)C12CCN(CCCCc1ccc(F)cc1)CC2` was over 50 µM.
As for `OC1(c2ccc(Cl)c(C(F)(F)F)c2)CCN(CCCC(c2ccc(C(F)(F)F)cc2)c2ccc(C(F)(F)F)cc2)CC1`, the EC50 was found to be 0.28 µM.
`CC(=O)NC1(c2ccc(C)cc2)CCN(CCCC(c2ccc(F)cc2)c2ccc(F)cc2)CC1` had an EC50 of 2.2 µM.
`Fc1ccc(C(CCCN2CCOCC2)c2ccc(F)cc2)cc1` showed an EC50 of over 50 µM.
For the compound `O=C1NCN(c2ccccc2)C12CCN(CCC=C(c1ccc(F)cc1)c1ccc(F)cc1)CC2`, the 50% effective concentration (EC50) came out at 6.2 µM.
Take `N#CC(CCCN1CCC(O)(c2ccc(Cl)c(C(F)(F)F)c2)CC1)(c1ccccc1)c1ccccc1`: the EC50 was determined as 3.2 µM.
The compound `N#CC1(c2ccccc2)CCN(CCCC(c2ccc(F)cc2)c2ccc(F)cc2)CC1` showed a half-maximal effective concentration (EC50) of 10.5 µM.
Compound `OC1(c2ccc(Cl)c(C(F)(F)F)c2)CCN(CCCC(c2ccc(F)cc2)c2ccc(F)cc2)CC1` [PENFLURIDOL] displayed an EC50 of 3.2 µM.
For the compound `O=C1NCN(c2ccccc2)C12CCN(CCCC(c1ccccc1)c1ccccc1)CC2`, the EC50 stood at 34.6 µM.
As for `OC1(c2ccc(Cl)c(C(F)(F)F)c2)CCN(CCC(c2ccc(F)cc2)c2ccc(F)cc2)CC1`, the concentration for a half-maximal effect (EC50) was 4.5 µM.
As to `Cc1cccc(C(CCCN2CCC(O)(c3ccc(Cl)c(C(F)(F)F)c3)CC2)c2cccc(C)c2)c1`, it took 0.29 µM to reach a half-maximal effect (EC50).
Then `O=C1NCN(c2ccccc2)C12CCN(CCCCC(c1ccc(F)cc1)c1ccc(F)cc1)CC2`, with 4.7 µM.
`O=C1NCN(c2ccccc2)C12CCN(C1c3ccccc3CCc3ccccc31)CC2`: the midpoint of the response, the EC50, lay at 5.1 µM.
For `CN1CCN(CCCC(c2ccc(F)cc2)c2ccc(F)cc2)CC1`, the EC50 is over 50 µM.
As for `O=C1NCN(c2ccccc2)C12CCN(C1c3ccccc3Sc3ccccc31)CC2`, the EC50 was over 50 µM.
`OC1(c2ccc(Cl)c(C(F)(F)F)c2)CCN(CCCC(c2cccc(C(F)(F)F)c2)c2cccc(C(F)(F)F)c2)CC1` displayed a concentration giving a half-maximal response (EC50) of 0.65 µM.
Take `O=C1NCN(c2ccccc2)C12CCN(CCCC(O)c1ccc(F)cc1)CC2` (stereo unspecified): the EC50 is over 50 µM.
Regarding `COc1ccc(C(CCCN2CCC3(CC2)C(=O)NCN3c2ccccc2)c2ccc(OC)cc2)cc1`, the response was half-maximal at 4.6 µM (EC50).
Turning to `Cc1ccc(C2CCN(CCCC(c3ccc(F)cc3)c3ccc(F)cc3)CC2)cc1`, the half-maximal effective concentration (EC50) was over 50 µM.
`O=C1NCN(c2ccccc2)C12CCN(CCCC(c1ccc(Cl)cc1)c1ccc(Cl)cc1)CC2` displayed a concentration for a half-maximal effect (EC50) of 4.2 µM.
